From PubChem BioAssay AID1963831 (Molecular Pharmacology Branch, DTP, NCI, 2024)

System: 889142-216-R-J1-PDC complex spheroid viability
Test: Anticancer human tumor 889142-216-R-J1-PDC patient-derived bladder carcinoma cell line growth inhibition [POLQ]
Conditions: for IC50: curve of first compound; for viability, T/C: stronger effect = lower value
Procedure, shortened: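 Patient-derived tumour cells were co-cultured with HUVEC and mesenchymal stem cells as multicellular spheroids at 37 °C. They were treated with POLQ inhibitors (novobiocin, ART-558, RP6685) alone or combined with other agents. Top concentrations were at or near clinical Cmax (otherwise 10 microM; SN-38 at 1 microM), decreasing in half-log steps.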

[1] = second compound 0.0316 µM, first compound 0.0316 µM
[2] = second compound 0.0316 µM, first compound 0.1 µM
[3] = second compound 0.0316 µM, first compound 0.316 µM
[4] = second compound 0.0316 µM, first compound 1 µM
[5] = second compound 0.0316 µM, first compound 3.16 µM
[6] = second compound 0.0316 µM, first compound 10 µM
[7] = second compound 0.1 µM, first compound 0.0316 µM
[8] = second compound 0.1 µM, first compound 0.1 µM
[9] = second compound 0.1 µM, first compound 0.316 µM
[10] = second compound 0.1 µM, first compound 1 µM
[11] = second compound 0.1 µM, first compound 3.16 µM
[12] = second compound 0.1 µM, first compound 10 µM
[13] = second compound 0.316 µM, first compound 0.0316 µM
[14] = second compound 0.316 µM, first compound 0.1 µM
[15] = second compound 0.316 µM, first compound 0.316 µM
[16] = second compound 0.316 µM, first compound 1 µM
[17] = second compound 0.316 µM, first compound 3.16 µM
[18] = second compound 0.316 µM, first compound 10 µM
[19] = second compound 1 µM, first compound 0.0316 µM
[20] = second compound 1 µM, first compound 0.1 µM
[21] = second compound 1 µM, first compound 0.316 µM
[22] = second compound 1 µM, first compound 1 µM
[23] = second compound 1 µM, first compound 3.16 µM
[24] = second compound 1 µM, first compound 10 µM
[25] = second compound 3.16 µM, first compound 0.0316 µM
[26] = second compound 3.16 µM, first compound 0.1 µM
[27] = second compound 3.16 µM, first compound 0.316 µM
[28] = second compound 3.16 µM, first compound 1 µM
[29] = second compound 3.16 µM, first compound 3.16 µM
[30] = second compound 3.16 µM, first compound 10 µM
[31] = second compound 10 µM, first compound 0.0316 µM
[32] = second compound 10 µM, first compound 0.1 µM
[33] = second compound 10 µM, first compound 0.316 µM
[34] = second compound 10 µM, first compound 1 µM
[35] = second compound 10 µM, first compound 3.16 µM
[36] = second compound 10 µM, first compound 10 µM
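Note: spheroids exposed to compounds for seven days.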
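Throughout, for viability, T/C: 100% = DMSO vehicle control viability.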

## CCc1cc2c(N3CCc4c(cc(Cn5ccnc5)cc4-c4cn(C)nc4C(F)(F)F)C3=O)cc(C)nc2c(OC)n1 + Nc1ccc(C#CCN(C(=O)Cc2ncc(C(F)(F)F)cc2C(F)(F)F)c2ccc(F)cc2)nn1
Second compound 0.0316 µM
  IC50: > 10 µM
Second compound 0.1 µM
  IC50: > 10 µM
Second compound 0.316 µM
  IC50: > 10 µM
Second compound 1 µM
  IC50: > 10 µM
Second compound 3.16 µM
  IC50: > 10 µM
Second compound 10 µM
  IC50: > 10 µM
[1]
  viability, T/C: 98.2%
[2]
  viability, T/C: 96.9%
[3]
  viability, T/C: 109%
[4]
  viability, T/C: 126%
[5]
  viability, T/C: 108%
[6]
  viability, T/C: 80.2%
[7]
  viability, T/C: 123%
[8]
  viability, T/C: 97.6%
[9]
  viability, T/C: 126%
[10]
  viability, T/C: 133%
[11]
  viability, T/C: 113%
[12]
  viability, T/C: 79.5%
[13]
  viability, T/C: 104%
[14]
  viability, T/C: 119%
[15]
  viability, T/C: 123%
[16]
  viability, T/C: 135%
[17]
  viability, T/C: 126%
[18]
  viability, T/C: 75.2%
[19]
  viability, T/C: 125%
[20]
  viability, T/C: 116%
[21]
  viability, T/C: 132%
[22]
  viability, T/C: 135%
[23]
  viability, T/C: 109%
[24]
  viability, T/C: 67.9%
[25]
  viability, T/C: 109%
[26]
  viability, T/C: 125%
[27]
  viability, T/C: 119%
[28]
  viability, T/C: 114%
[29]
  viability, T/C: 116%
[30]
  viability, T/C: 97.3%
[31]
  viability, T/C: 97.8%
[32]
  viability, T/C: 126%
[33]
  viability, T/C: 112%
[34]
  viability, T/C: 124%
[35]
  viability, T/C: 104%
[36]
  viability, T/C: 93.4%

## CNCc1ccc(-c2[nH]c3cc(F)cc4c3c2CCNC4=O)cc1 + Cc1cccc(N(C)C(=O)C2C(O)CCN2c2nc(C)cc(C(F)(F)F)c2C#N)c1
Second compound 0.0316 µM
  IC50: > 10 µM
Second compound 0.1 µM
  IC50: > 10 µM
Second compound 0.316 µM
  IC50: > 10 µM
Second compound 1 µM
  IC50: > 10 µM
Second compound 3.16 µM
  IC50: > 10 µM
Second compound 10 µM
  IC50: > 10 µM
[1]
  viability, T/C: 110%
[2]
  viability, T/C: 106%
[3]
  viability, T/C: 83.5%
[4]
  viability, T/C: 92.7%
[5]
  viability, T/C: 101%
[6]
  viability, T/C: 58.3%
[7]
  viability, T/C: 91.9%
[8]
  viability, T/C: 87%
[9]
  viability, T/C: 95.9%
[10]
  viability, T/C: 91.7%
[11]
  viability, T/C: 85.4%
[12]
  viability, T/C: 78.5%
[13]
  viability, T/C: 92.8%
[14]
  viability, T/C: 89.4%
[15]
  viability, T/C: 109%
[16]
  viability, T/C: 110%
[17]
  viability, T/C: 126%
[18]
  viability, T/C: 79.9%
[19]
  viability, T/C: 82.3%
[20]
  viability, T/C: 120%
[21]
  viability, T/C: 104%
[22]
  viability, T/C: 119%
[23]
  viability, T/C: 113%
[24]
  viability, T/C: 70.7%
[25]
  viability, T/C: 102%
[26]
  viability, T/C: 99%
[27]
  viability, T/C: 110%
[28]
  viability, T/C: 89.2%
[29]
  viability, T/C: 96.6%
[30]
  viability, T/C: 63.9%
[31]
  viability, T/C: 73.7%
[32]
  viability, T/C: 81.2%
[33]
  viability, T/C: 88.4%
[34]
  viability, T/C: 94.4%
[35]
  viability, T/C: 78.5%
[36]
  viability, T/C: 57.2%
